Results taken from patent publication US20120064174A1, “METHOD FOR STIMULATING HAIR GROWTH” (LEGACY HEALTHCARE HOLDING LTD., priority 2010, published 2012).
“And” between values parts separate entries of the source, which are not always exact repeats. Equal values may be shown once.

System: scalp of male volunteers
Test: Double-blind placebo-controlled clinical study, hair diameter measurement by hair clipping
Assay type: in vivo, human
Conditions: after 32-51 days of treatment, one volunteer per row
Protocol: […] The male volunteers had been under treatment of a 5-alpha-reductase inhibitor treatment (Finasteride 1 mg) started within the last 3 months, or for the last three years. The first objective is to assess if the hair diameter of volunteers under a 5-alpha-reductase inhibitor (Finasteride 1 mg) and Cellium (TRADEMARK) GC 210 mg/mL is higher than on volunteers under a 5-alpha-reductase inhibitor (Finasteride 1 mg) and placebo only. The hair diameters were compared using a starting or initial hair diameter measurement and a post-study hair diameter measurement as quantified later herein. The second objective is to evaluate the cosmetic acceptance in the studied population. A prospective, double-blind, monocentric, randomized testing along with a placebo testing is conducted with two parallel groups. […] Information on self-assessed effectiveness, appreciation, and overall satisfaction was solicited from volunteers using a questionnaire. […] Exemplary secondary criteria include photographic documentation for qualitative purposes and also self-assessed effectiveness, appreciation, and overall satisfaction as indicated by a questionnaire given to participants. […]

CC(C)(C)NC(=O)[C@H]1CC[C@H]2[C@@H]3CC[C@H]4NC(=O)C=C[C@]4(C)[C@H]3CC[C@]12C [Finasteride + Placebo, Finasteride]
Variation of diameter (in %) (relative to first diameter): 4.4% and −0.7% and −2.4% | Variation of diameter (μm) (second minus first diameter): 2.2 μm and −0.3 μm and −1.2 μm
